Entries after “also recorded” stand apart in the source; their conditions may differ.
How the values were obtained:
VEGF = test: Serum VEGF levels by ELISA in glucocorticoid-treated mice; format: in vivo; settings: day 56; GC from day 1; LLP2A-Ale given at day 28; ELISA in duplicate (FIG. 4)
Method: FIG. 4. Serum VEGF-A levels in glucocorticoid-treated mice. Mice treated with placebo (PL), glucocorticoid (GC), glucocorticoid and 250 μg/kg LLP2A-Ale (GC+LLP2A-Ale), glucocorticoid and PTH (GC+PTH), or glucocorticoid and PTH and 250 μg/kg LLP2A-Ale (GC+PTH+LLP2A-Ale) were measured for serum levels of VEGF.
Increased blood vessel formation can also be assessed by marker analysis. For example, VEGF is a pro-angiogenic factor and stimulates new blood vessel formation. […] PTH was given 20 ug/kg 5× a week, while LLP2A-Ale was given at […] at day 28 only.

[1] = test system: glucocorticoid-treated mice; test: Trabecular bone volume in glucocorticoid-treated mice; format: in vivo; settings: GC 28 days then treatment
Method: FIG. 6. Trabecular bone volume in glucocorticoid-treated mice. Mice were treated for 28 days with glucocorticoid (GC), then treated with either LLP2A-Ale, PTH, or LLP2A-Ale+PTH. The outcome measure was the change in trabecular bone mass from day 28 to 56, measured in vivo at the distal femur (left panel) and change in trabecular bone mass for the vertebral trabecular bone volume (right panel).
Changes in trabecular bone mass during the treatment period for the distal femur and vertebral trabecular bone volume were measured.

[2] = test system: dexamethasone-treated mice; test: Empty lacunae density in distal femoral epiphysis, 90 day model; format: in vivo, BALB/c mice; settings: day 90
Method: FIG. 8A-8B. Empty lacunae density of femurs from in dexamethasone-treated mice. Mice treated with placebo (PL), dexamethasone alone (Dex), Dex+250 μg/kg LLP2A-Ale, Dex+500 μg/kg LLP2A-Ale, or Dex+750 μg/kg LLP2A-Ale as described above for FIG. 7 were assessed for empty lacunae density within the distal femoral epiphysis region. Empty lacunae density was calculated by determining the number of empty lacunae in the entire distal femoral epiphysis region divided by the total number of osteocytes within the same region for each specimen. In the Dex only group, 75% of the samples had 10% or more empty lacunae, as compared to 44-62% of the samples in LLP2A-Ale-treated groups. A higher number of LLP2A-Ale 250 μg/kg, LLP2A-Ale 500 μg/kg, and LLP2A-Ale 750 μg/kg—treated samples had less than 10% empty lacunae as compared to Dex only treatment.
Both the right and left distal femurs were fixed in 10% neutral buffered formalin and were shaken for 3 days, then decalcified in 5% EDTA until the bones were fully decalcified. The specimens were then processed in ascending concentrations of ethanol and embedded in paraffin. Tissue sections were cut into 5 microns sections, stained with hematoxylin and eosin and evaluated for the presence of osteonecrosis by bright field microscopy at 20× magnification. […] Osteonecrosis was detected using modified criteria reported by Yang el al., (a mouse model for glucocorticoid-induced osteonecrosis: Effect of a steroid holiday. J Orthop Res. 2009; 27:169-75) which defines osteonecrosis as requiring all of the following changes: (1) empty lacunae, (2) pyknotic osteocyte nuclei in areas of empty lacunae and necrosis of adjacent bone marrow, (3) presence of excessive fat cells in the bone marrow, (4) cartilage degradation and (5) presence of fibrin thrombi in the blood vessels. In addition, trabecular bone volume, adipose volume, sinusoid volume and osteoblast surface at the distal femoral epiphyses were measured. Empty lacunae density was calculated by empty lacunae/total osteocytes within the entire distal femoral epiphysis region for each sample. […]

osteocytes = test: Cortical bone osteocyte apoptosis (TUNEL) in glucocorticoid-treated mice; format: in vivo; settings: GC 56 days, one dose of LLP2A-Ale at day 28, sacrifice day 56, TUNEL (FIG. 5)
Method: FIG. 5. Cortical bone osteocyte apoptosis. Mice were treated with PL for 56 days, GC alone for 56 days or GC alone for 28 days, then GC plus one dose of LLP2A-Ale at day 28. Animals were sacrificed at day 56 and the percent of osteocytes that were apoptotic were measured.
Osteocytes die from loss of blood supply and also from glucocorticoid treatment. […] The animals were sacrificed at day 56, the bones were decalcified and then TUNEL assays were performed to determine the number of apoptotic osteocytes. Glucocorticoid treatment alone, at day 56 increased the number of osteocytes that were apoptotic.

[3] = test system: dexamethasone-treated mice; test: Histological evaluation (H&E) of femoral epiphyses, 90 day model; format: in vivo, BALB/c mice
Method: FIG. 9A-9F. Histological evaluation of femurs from placebo- or dexamethasone-treated mice. Mice were treated with placebo (PL) or dexamethasone alone (Dex) as described above for FIG. 7. All mice were euthanized at day 90. Right and left distal femurs were fixed in 10% neutral buffer formalin and decalcified. The specimens were dehydrated, embedded in paraffin, cut into 5 micron sections and H&E stained. The sections were scored by two experienced histologists and then a consensus reading was performed by two additional histologists. FIG. 9A-9B: 4× (A) and 20× (B) magnifications of representative proximal femoral epiphyses in mice treated with placebo. (C) 4× magnification of a representative proximal femoral epiphyses in mice treated with dexamethasone (Dex) alone. FIGS. 9D, 9E, and 9F: 20× magnifications of representative proximal femoral epiphyses in mice treated with dexamethasone (Dex) alone.
FIG. 11A-11F. Histological evaluation of femurs from LLP2A-Ale-treated mice. Mice were treated with Dex+250 μg/kg LLP2A-Ale as described above for FIG. 7. All mice were euthanized at day 90. Right and left distal femurs were fixed in 10% neutral buffer formalin and decalcified. The specimens were dehydrated, embedded in paraffin, cut into 5 micron sections and H&E stained. The sections were scored by two experienced histologists and then a consensus reading was performed by two additional histologists. (A, D): 4× magnifications of representative proximal femoral epiphyses in mice treated with Dex+LLP2A-Ale. (B, C, E, F): 20× magnifications of representative proximal femoral epiphyses in mice treated with Dex+LLP2A-Ale.
Both the right and left distal femurs were fixed in 10% neutral buffered formalin and were shaken for 3 days, then decalcified in 5% EDTA until the bones were fully decalcified. The specimens were then processed in ascending concentrations of ethanol and embedded in paraffin. Tissue sections were cut into 5 microns sections, stained with hematoxylin and eosin and evaluated for the presence of osteonecrosis by bright field microscopy at 20× magnification. Experimental methods are also described in Mohan et al., Calif Tissue Int (2016) doi:10.1007/s00223-016-0195-6, which is incorporated herein by reference in its entirety for all purposes. Osteonecrosis was detected using modified criteria reported by Yang el al., (a mouse model for glucocorticoid-induced osteonecrosis: Effect of a steroid holiday. J Orthop Res. 2009; 27:169-75) which defines osteonecrosis as requiring all of the following changes: (1) empty lacunae, (2) pyknotic osteocyte nuclei in areas of empty lacunae and necrosis of adjacent bone marrow, (3) presence of excessive fat cells in the bone marrow, (4) cartilage degradation and (5) presence of fibrin thrombi in the blood vessels. In addition, trabecular bone volume, adipose volume, sinusoid volume and osteoblast surface at the distal femoral epiphyses were measured. Empty lacunae density was calculated by empty lacunae/total osteocytes within the entire distal femoral epiphysis region for each sample. Each section was scored by two experienced histologists, then a consensus reading was performed by two additional experienced histologists.

For `Cc1ccccc1NC(=O)Nc1ccc(CC(=O)N[C@@H](CCCCNC(=O)/C=C/c2cccnc2)C(=O)N[C@@H](CCCC(=O)O)C(=O)NC2(C(=O)NCCOCCOCCNC(=O)CCC(=O)NCCOCCOCCNC(=O)CCC(=O)N[C@@H](CCCCNC(=O)[C@H](N)CSC3CC(=O)N(CC4CCC(C(=O)NCCCC(O)(P(=O)(O)O)P(=O)(O)O)CC4)C3=O)C(N)=O)CCCCC2)cc1` (stereo partly shown) [LLP2A-Ale], which “Serum levels of VEGF” value (VEGF) is on record?
Its value is “returned the levels of serum VEGF to those of placebo treated animals”.

What about the “Change in trabecular bone mass/volume at the distal femur” value ([1]; change from day 28 to 56, measured in vivo (FIG. 6 left)) of the same compound?
Its value is “increased the distal femur trabecular bone volume to the baseline/sham level”.

And the “Vertebral trabecular bone volume” value ([1]; day 28 to 56 (FIG. 6 right))?
Its value is “increased the bone volume relative to the glucocorticoid-treated mice”.

And the “Samples with less than 10% empty lacunae” value ([2]; LLP2A-Ale 250, 500, 750 μg/kg vs Dex only)?
Its value is “more samples; also recorded: higher number”.

What about the “Samples with 10% or more empty lacunae” value ([2]; distal femoral epiphysis, Dex only vs LLP2A-Ale 250, 500, 750 μg/kg groups (FIG. 8A-B)) of the same compound?
The value was 44-62%.

And the “Cortical bone osteocyte apoptosis (percent of osteocytes apoptotic)” value (osteocytes)?
Its value is “prevented osteocyte apoptosis”.

And the “Sinusoid formation (histological sections of epiphyses)” value ([3]; Dex+250 μg/kg LLP2A-Ale, day 90, H&E (FIG. 11))?
The value was “increased sinusoid formation; also recorded: increase in sinusoid formation”.

What about the “Amount of fibrin within the bone marrow” value ([3]; day 90) of the same compound?
The value was “appeared to reduce the amount of fibrin”.

And the “Number of osteoblasts on the bone surface in areas of osteonecrosis” value ([3]; epiphyses, day 90)?
The value was “increased the number of osteoblasts”.

And the “Adipocyte density in the bone marrow” value ([3]; vs dexamethasone alone, day 90)?
Its value is “appeared to reduce”.

What about the “Cellularity of the bone marrow” value ([3]; vs dexamethasone alone, day 90) of the same compound?
Its value is “maintained the cellularity of the bone marrow”.

And the “Number of empty lacunae/pyknotic nuclei” value ([3]; vs dexamethasone alone, day 90)?
Its value is “appeared to reduce”.

What about the “Sinusoidal red blood cell volume” value ([3]; vs dexamethasone alone, day 90) of the same compound?
The value was “increased the sinusoidal red blood cell volume”.

— patent publication US12569506B2, “Methods of treating osteonecrosis with LLP2A-bisphosphonate compounds” (The Regents of the University of California, priority 2016, dated 2026)
